Test results taken from patent publication US8735624B2, “Polymorphic form of CHDMAPP, method of preparation thereof, and pharmaceutical composition comprising same” (Innate Pharma, priority 2008, dated 2014).

What was measured:
[1] = solid phase stability on storage (XRPD); assay type: physicochemical; details: for crystalline structure after storage (XRPD): stored 3 months at 40° C., 75% RH
Protocol: X-Ray Powder Diffraction measurements were carried out by using a SIEMENS D5005 diffractometer (Bruker analytical X-Ray Systems, D-76187 Karlsruhe, Germany) with a Bragg Brentano geometry, in theta-theta reflection mode. The instrument is equipped with a X-Ray tube (copper anticathode, 40 kV, 30 mA, Kα1 radiation: 1.5406 Å, Kα2 radiation: 1.5444 Å), a nickel filter and a scintillation detector. The diffraction patterns were collected by steps of 0.04° (2-theta) over the angular range 3°-30°, with a counting time of 4 s per step. No internal standard was used but a sample of quartz was analyzed as an external standard. The temperature of the sample was either the room temperature or accurately monitored when heating was required. DIFFRAC PLUS Edit Job software (v. 2.00) was used as control software and data processing was performed by using the Eva software (v. 9.0 and v. 10.0).

[2] = DVS hygroscopicity and moisture measurements; assay type: physicochemical; details: result in words
Protocol: Moisture sorption isotherms of the crystalline phases were obtained by using a DVS-1 automated water sorption analyzer (Surface Measurements Systems, Alperton, Middlesex, United Kingdom). The reference material was an empty glass pan and the total gas flow was 200 sccm.min^−1 (Standard Cubic Centimeters per minute). Temperature of analysis was 20° C. For each measurement, precisely ca. 15 mg of the sample were weighed in a glass pan beforehand allowed for the tare, then placed in the analyzer.
As a first stage, dry nitrogen (0% R.H) was applied until constant weight of the sample in order to eliminate adsorbed or absorbed water (potential dehydration). Then, mass variations were recorded while R.H. was increased by steps of 10% R.H. The automated analyzer was allowed to start the following step as soon as the mass variation of the sample was less than 5.10^−4 mg.min^−1. The upper limit was adjusted below the deliquescence of the compound and never exceeded 90% R.H.
DVSWin (v 2.18) was used as control and data collection software whereas data processing was performed by using DVS Standard Analysis Suite (v 4.3).
Further parameters used in DVS procedures are as follows:
Protocole Dynamic Vapor Sorption/Appareil ‘Surface Measurements Systems)=
Automated Water Sorption Analyzer’/model: DVS−1
Analysis method: • step mode, • Temperature: 20° C. • step dm/dt<0.0005 (mg/min) • First stage R.H.=0% • Last Stage R.H.=90% • Minimum Stage: 20 min • Maximum Stage: 120 min • Total Gas Flow: 200 • Nitrogen: 200 Bars, H2O<3 ppm, O2<2 ppm, Réf. Nitrogen N50 B50*0 Software—data collection and data processing: • DVSWin v2.18 (control software), • DVS Standard Analysis Suite v4.3 (analysis software).]

γδ T cells = details: activator of γδ T cells; times higher than BrHPP; cited from earlier work
[3] = stability of CHDMAPP in solution in water; assay type: physicochemical; details: in solution in water at 5% in weight, 55° C.
Excerpt: The crystalline phase thus provides a dramatic improvement of the stability and of the storage capabilities of the drug product.

[4] = pKa of the acidic functions; assay type: physicochemical
Excerpt: Each of these acidic functions can be coupled with a cation. Therefore, three stoichiometries of sodium salts of CHDMAPP may be prepared: A monosodium salt, a disodium salt and a trisodium salt.

TG/DSC thermal stability = assay type: physicochemical; details: TGA-DSC
Protocol: The stability range was assessed using Differential Scanning calorimetry (DSC), using a Netzsch STA 449C apparatus, as is described in detail hereinafter, and having a standard deviation of ±0.5° C. The person skilled in the art will appreciate that alternative readings of the melting point may result from the use of other types of DSC equipment and/or the use of other system under conditions different to those described below.
TG/DSC measurements were carried out by using a NETZSCH STA 449C Jupiter Thermogravimetric Analyzer (NETZSCH, D-95100 Selb, Germany) equipped with a low temperature furnace. The purge gas used was helium (gas flow=50 mL/min) and the reference material was an empty aluminum pan without cap. The samples were weighed in open aluminum pans, and then placed in the analyzer. The analyses were performed within various temperature ranges using a 2°.min^−1 heating rate. PROTEUS software was used for the acquisition and data processing (v. 4.7.0).

[5] = ICH stability testing (chemical purity by HPAEC); assay type: physicochemical; details: closed glass vials
Protocol: The chemical purity of phosphoesters (including the isomeric purity for geometric isomers) is determined using High Performance Anion-Exchange Chromatography (HPAEC) with suppressed conductivity detection. The HPAEC device comprises a DIONEX DX600 system (DIONEX Corporation, Sunnyvale Calif., USA) connected to computer loaded with DIONEX Chromeleon® chromatography software. A DIONEX CD25 conductivity detector is used with an anion self regenerating suppressor (ASRS®-ultra II-4 mm), which is set to either auto-suppression mode or external water mode. The HPAEC column used is a DIONEX Ion Pac® AS11 column (4×250 mm) equipped with an AG11 guard column (4×50 mm). In this procedure, phosphoesters are eluted (as anionic form) from the anion exchange column with a sodium or potassium hydroxide step gradient.
Stability tests of CHDMAPP-Na2,1H2O have been conducted according to ICH guideline Q7a, Section 19.11, under various storage conditions: 5° C., and 25° C./60% RH, both in closed glass vials. Purity has been assessed at regular time intervals (t0, 1, 3, 6 and 9 months) by HPAEC using a Dionex Ion Pac AS11, 4.0×250 mm column and a Dionex Ion Pac AG11, […] and by eluting with a gradient of water and NaOH solution.

SMILES: C/C(=C\CCP(=O)([O-])OP(=O)(O)O)CO.C/C(=C\CCP(=O)([O-])OP(=O)(O)O)CO.[Na+].[Na+] [CHDMAPP-Na2,0H2O, anhydrous (2E)-1-hydroxy-2-methylpent-2-enyl-pyrophosphonate disodium]
- crystalline structure after storage (XRPD) [1]: completely modified
- hygroscopicity [2]: hygroscopic
- hygroscopicity ([2]; listed as anhydrous salt): somewhat hygroscopic

SMILES: C/C(=C\CCP(=O)(O)OP(=O)(O)O)CO [CHDMAPP, (2E)-1-hydroxy-2-methylpent-2-enyl-pyrophosphonate]
- in vitro activity relative to BrHPP (Phosphostim) (γδ T cells): approximately 100 times
- half-life [3]: 62.4 h
- pKa of the weak acidic function ([4]; one function, weak pKa): 7.1
- pKa of the two strong acidic functions ([4]; two functions, strong pKa): 2.1

SMILES: C/C(=C\CCP(=O)(O)OP(=O)(O)O)CO [CHDMAPP-Na2,1H2O, (2E)-1-hydroxy-2-methylpent-2-enyl-pyrophosphonate disodium monohydrate]
- spontaneous phase transformation on storage ([1]; after more than 6 months, 25° C., 60% RH): does not observe any spontaneous phase transformation
- crystalline structure after storage (XRPD) [1]: has not been modified
- hygroscopicity [2]: great non-hygroscopicity
- temperature up to which compound is stable (onset of endothermic dehydration peak) (TG/DSC thermal stability; listed as monohydrate disodium salt): 115 °C
- temperature up to which compound is stable (onset of endothermic dehydration peak) (TG/DSC thermal stability; disodium monohydrate): 115.7 °C
- Purity ([5]; storage 5° C., 1 month): 99.1%
- Purity ([5]; storage 5° C., 3 months): 99.2%
- Purity ([5]; storage 5° C., 6 months): 98.8%
- Purity ([5]; storage 5° C., 9 months): 98.9%
- Purity ([5]; storage 5° C., t 0): 99.3%
- Purity ([5]; storage 25° C./60% R.H., 1 month): 99.2%
- Purity ([5]; storage 25° C./60% R.H., 3 months): 99.1%
- Purity ([5]; storage 25° C./60% R.H., 6 months): 98.7%
- Purity ([5]; storage 25° C./60% R.H., 9 months): 98.9%
- Purity ([5]; storage 25° C./60% R.H., t 0): 99.3%

SMILES: CC(=CCCP(=O)([O-])OP(=O)([O-])[O-])CO.[Na+].[Na+].[Na+] [trisodium]
- hygroscopicity [2]: very hygroscopic solid
